In brackets after ≈: the same amount, converted by molar mass. Several values for one entry are separate records, joined by “and”; a condition that tells them apart may be missing. Equal entries are not always repeated.
How the values were obtained:
[1] = cited from earlier work
Nepafenac solubility = format: physicochemical; settings: aqueous buffer; PBS, pH 7.2 at 37° C.
Experimental: Nepafenac is a monocarboxylic acid amide that is amfenac in which the carboxylic acid group has been converted into the corresponding carboxamide. Nepafenac is yellow crystalline or powdery substance practically insoluble in water (14 mcg/mL). Nepafenac is soluble in organic solvents such as ethanol, DMSO, and dimethyl formamide (DMF). The solubility of nepafenac in ethanol is approximately 0.5 mg/mL and approximately 30 mg/ml in DMSO and DMF. An aqueous suspension at 0.1% gives an average pH of 6.75. The coefficient partition n-octanol/water is 128. […] Nepafenac is an achiral substance and there are no possible variations in the stereochemical configuration.
Nepafenac solubility testing in PBS, pH 7.2 at 37° C. is approximately 102 mcg/mL.

[2] = cited from earlier work; remark: listed apart in the source
[3] = aqueous suspension at 0.1%; cited from earlier work
[4] = biological target: T1, cyclooxygenase-2 (COX-2) enzyme (Homo sapiens, UniProt P35354); settings: Walters et al., 2007; cited from earlier work
T1 sequence (P35354 18-604): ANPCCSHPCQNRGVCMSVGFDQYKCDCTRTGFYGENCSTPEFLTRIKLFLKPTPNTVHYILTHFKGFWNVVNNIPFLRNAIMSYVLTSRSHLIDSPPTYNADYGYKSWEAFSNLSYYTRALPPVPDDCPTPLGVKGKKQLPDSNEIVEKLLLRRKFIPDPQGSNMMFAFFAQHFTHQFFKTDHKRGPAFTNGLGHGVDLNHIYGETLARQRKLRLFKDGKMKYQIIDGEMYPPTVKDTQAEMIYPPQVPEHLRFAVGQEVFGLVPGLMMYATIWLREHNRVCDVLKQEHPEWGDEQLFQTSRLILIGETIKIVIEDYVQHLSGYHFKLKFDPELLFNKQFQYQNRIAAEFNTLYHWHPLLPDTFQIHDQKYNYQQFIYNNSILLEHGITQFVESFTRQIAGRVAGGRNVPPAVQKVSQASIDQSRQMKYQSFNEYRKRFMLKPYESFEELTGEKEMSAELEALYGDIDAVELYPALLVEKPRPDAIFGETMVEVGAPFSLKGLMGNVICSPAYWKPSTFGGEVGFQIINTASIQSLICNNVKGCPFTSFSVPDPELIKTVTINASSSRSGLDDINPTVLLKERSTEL

| Compound | solubility in DMF ([1]; DMF) | solubility in DMSO ([1]; DMSO) | solubility in ethanol ([1]; ethanol) | solubility in water ([1]; water) | solubility (Nepafenac solubility) | coefficient partition n-octanol/water [2] | average pH of aqueous suspension [3] | IC50 [4] |
| --- | --- | --- | --- | --- | --- | --- | --- | --- |
| NC(=O)Cc1cccc(C(=O)c2ccccc2)c1N [Nepafenac, 2-(2-amino-3-benzoylphenyl)acetamide] | approximately 30 mg/ml | approximately 30 mg/ml | approximately 0.5 mg/mL | 14 µg/mL (≈ 55.1 µM) | ~102 µg/mL (≈ 401 µM) | 128 | 6.75 | – |
| Nc1c(CC(=O)O)cccc1C(=O)c1ccccc1 [amfenac] | – | – | – | – | – | – | – | ~1.76 nM and 1.76 nM |

From US20250064760A1, “INTRACANALICULAR INSERT COMPRISING A NON-STEROIDAL ANTI-INFLAMMATORY AGENT” (OCULAR THERAPEUTIX, INC., priority 2022, published 2025)
